Test results published in patent US12583861B2, “Derivatives of imidazo[4,5-d]pyridazine, their preparation and their therapeutic application” (SANOFI, priority 2021, dated 2026).
Counter-ions that a name gives are not always drawn.

How the values were obtained:
human TLR8 = biological target: T1, human TLR8 (Homo sapiens, UniProt Q9NR97); assay: HEK-Blue hTLR8 reporter cell assay (SEAP, NF-kB/AP-1) for stimulation of human TLR8; type: cell-based; conditions: HEK-Blue hTLR8 cells; for EC50: 24 h incubation, SEAP readout, read-out: TLR8_EC50
T1 construct: host or cells: HEK293 (HEK-Blue hTLR8)
T1 sequence (Q9NR97 27-1041): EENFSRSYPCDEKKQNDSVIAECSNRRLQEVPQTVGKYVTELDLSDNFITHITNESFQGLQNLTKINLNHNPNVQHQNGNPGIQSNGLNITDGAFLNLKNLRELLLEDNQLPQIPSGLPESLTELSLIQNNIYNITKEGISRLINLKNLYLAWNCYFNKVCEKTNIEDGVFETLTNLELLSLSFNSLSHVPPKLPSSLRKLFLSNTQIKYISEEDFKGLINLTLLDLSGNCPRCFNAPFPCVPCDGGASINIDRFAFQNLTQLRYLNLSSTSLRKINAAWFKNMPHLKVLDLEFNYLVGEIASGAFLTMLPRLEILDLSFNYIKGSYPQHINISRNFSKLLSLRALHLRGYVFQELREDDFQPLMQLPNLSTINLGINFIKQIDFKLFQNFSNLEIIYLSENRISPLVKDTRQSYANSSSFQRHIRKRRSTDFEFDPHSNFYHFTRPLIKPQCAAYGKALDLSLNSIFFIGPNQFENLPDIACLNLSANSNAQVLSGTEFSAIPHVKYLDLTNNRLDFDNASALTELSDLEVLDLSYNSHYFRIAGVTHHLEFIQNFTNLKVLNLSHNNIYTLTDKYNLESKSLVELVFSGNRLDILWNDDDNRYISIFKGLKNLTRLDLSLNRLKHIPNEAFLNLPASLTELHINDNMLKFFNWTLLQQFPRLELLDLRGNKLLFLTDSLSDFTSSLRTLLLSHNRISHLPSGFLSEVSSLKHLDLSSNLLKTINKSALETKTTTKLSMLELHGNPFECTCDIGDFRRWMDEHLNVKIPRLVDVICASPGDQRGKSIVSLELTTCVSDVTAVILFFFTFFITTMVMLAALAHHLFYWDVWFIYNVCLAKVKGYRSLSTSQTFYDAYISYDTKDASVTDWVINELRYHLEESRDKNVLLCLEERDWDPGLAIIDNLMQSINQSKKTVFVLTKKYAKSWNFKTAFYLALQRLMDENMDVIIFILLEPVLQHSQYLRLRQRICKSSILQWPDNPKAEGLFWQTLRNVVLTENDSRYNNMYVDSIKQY
How it was run: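 Stimulation is quantified as secreted alkaline phosphatase in supernatant using QUANTI-Blue™ substrate. Reporter HEK293 line co-transfected with hTLR8 and SEAP under an IFN-β minimal promoter with five NF-κB/AP-1 sites; 3.10E4 cells/well, 18 to 24 h pre-culture at 37° C. before compounds.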

human TLR7 = biological target: T2, human TLR7 (Homo sapiens, UniProt Q9NYK1); assay: HEK-Blue hTLR7 reporter cell assay (SEAP, NF-kB/AP-1) for stimulation of human TLR7; type: cell-based; conditions: HEK-Blue hTLR7 cells; for EC50: 24 h incubation, SEAP readout, read-out: TLR7_EC50; for activation at 20 µM: 24 h, at 20000 nM
T2 construct: host or cells: HEK293 (HEK-Blue hTLR7)
T2 sequence (Q9NYK1 27-1049): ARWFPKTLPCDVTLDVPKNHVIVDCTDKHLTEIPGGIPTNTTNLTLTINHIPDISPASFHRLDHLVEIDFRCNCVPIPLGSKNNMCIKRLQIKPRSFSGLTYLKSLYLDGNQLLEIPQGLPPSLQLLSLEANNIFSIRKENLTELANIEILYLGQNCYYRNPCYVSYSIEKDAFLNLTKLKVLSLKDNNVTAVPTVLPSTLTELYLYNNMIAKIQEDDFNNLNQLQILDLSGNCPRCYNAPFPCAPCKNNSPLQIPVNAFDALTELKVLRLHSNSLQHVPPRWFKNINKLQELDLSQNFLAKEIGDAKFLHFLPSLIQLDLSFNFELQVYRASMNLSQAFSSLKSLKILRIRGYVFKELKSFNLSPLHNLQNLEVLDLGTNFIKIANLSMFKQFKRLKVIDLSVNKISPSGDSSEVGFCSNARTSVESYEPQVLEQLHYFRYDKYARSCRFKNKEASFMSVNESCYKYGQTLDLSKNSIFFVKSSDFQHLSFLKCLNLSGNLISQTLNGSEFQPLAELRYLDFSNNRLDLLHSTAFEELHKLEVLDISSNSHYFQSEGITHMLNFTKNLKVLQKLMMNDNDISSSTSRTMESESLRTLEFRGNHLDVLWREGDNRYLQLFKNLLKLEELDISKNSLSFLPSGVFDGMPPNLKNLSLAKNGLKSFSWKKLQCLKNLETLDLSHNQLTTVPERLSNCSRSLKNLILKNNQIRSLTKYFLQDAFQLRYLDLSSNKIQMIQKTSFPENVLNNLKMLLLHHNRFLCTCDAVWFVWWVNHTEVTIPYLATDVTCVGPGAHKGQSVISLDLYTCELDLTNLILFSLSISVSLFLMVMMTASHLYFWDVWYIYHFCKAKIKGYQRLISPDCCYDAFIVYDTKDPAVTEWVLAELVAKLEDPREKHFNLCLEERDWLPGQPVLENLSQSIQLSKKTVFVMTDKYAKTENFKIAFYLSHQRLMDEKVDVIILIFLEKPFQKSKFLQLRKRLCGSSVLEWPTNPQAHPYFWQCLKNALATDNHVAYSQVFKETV
How it was run: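 Activity expressed as EC50 for half-maximal SEAP induction. Compounds, serially diluted 3-fold from 20 to 0.01 μM, were incubated 24 h at 37 °C, 5% CO2 with HEK-Blue hTLR7 reporter cells (3.10E4/well, plated 18–24 h earlier); supernatant developed with QUANTI-Blue.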

Row | Compound | EC50 (human TLR8) | EC50 (human TLR7) | activation at 20 µM (human TLR8; 24 h, at 20000 nM) | activation at 20 µM (human TLR7)
1 | CCCCc1nc2c(N)nnc(C3CCCC3)c2n1Cc1ccc(OC)cc1 [Compound 16, 2-butyl-7-cyclopentyl-1-(4-methoxybenzyl)-1H-imidazo[4,5-d]pyridazin-4-amine] | > 20 µM | 0.323 µM |  | 
2 | CCC[S+]([O-])c1nc2c(N)nnc(OC(C)C)c2n1Cc1ccc(CN)cc1 (stereo not drawn) [Compound 162, 3-[[4-(aminomethyl)phenyl]methyl]-4-isopropoxy-2-propylsulfinyl-imidazo[4,5-d]pyridazin-7-amine] | > 20 µM | 6.7 µM |  | 
3 | CCCCc1nc2c(N)nnc(OC(C)C)c2n1Cc1ccc(CNCCOCCOCCOCCOCCOCCOCCOCCOCCOCCOCCOCCOC)cc1 [Compound 123, 2-butyl-4-isopropoxy-3-[[4-[[2-[2-[2-[2-[2-[2-[2-[2-[2-[2-[2-(2-methoxyethoxy)ethoxy]ethoxy]ethoxy]ethoxy]ethoxy]ethoxy]ethoxy]ethoxy]ethoxy]ethoxy]ethylamino]methyl]phenyl]methyl]imidazo[4,5-d]pyridazin-7-amine di2,2,2-trifluoroacetate] |  |  | 10.2% | 13.5%
4 | CCCCc1nc2c(N)nnc(OCc3ccccc3)c2n1Cc1ccc(OC)cc1 [Compound 52, 7-(benzyloxy)-2-butyl-1-(4-methoxybenzyl)-1H-imidazo[4,5-d]pyridazin-4-amine] | > 20 µM | 0.551 µM |  | 
5 | CCCCc1nc2c(N)nnc(OC)c2n1Cc1ccc(OC)cc1 [Compound 50, 2-butyl-7-methoxy-1-(4-methoxybenzyl)-1H-imidazo[4,5-d]pyridazin-4-amine] | > 20 µM | 0.269 µM |  | 
6 | CCCCc1nc2c(N)nnc(OC(C)C)c2n1CCCCCCNC1CCOCC1 [Compound 147, 2-butyl-4-isopropoxy-3-[6-(tetrahydropyran-4-ylamino)hexyl]imidazo[4,5-d]pyridazin-7-amine; dihydrochloride] | 7.72 µM | 0.0204 µM |  | 
7 | CCCCCCCCCCNCc1ccc(Cn2c(CCCC)nc3c(N)nnc(OC(C)C)c32)cc1 [Compound 110, 2-butyl-1-(4-((decylamino)methyl)benzyl)-7-isopropoxy-1H-imidazo[4,5-d]pyridazin-4-amine] | 2.85 µM | 0.734 µM |  | 
8 | CCCCc1nc2c(N)nnc(OC(C)C)c2n1Cc1ccc(CNCCOCCOCCOCCOC)cc1 [Compound 121, 2-butyl-4-isopropoxy-3-[[4-[[2-[2-[2-(2-methoxyethoxy)ethoxy]ethoxy]ethylamino]methyl]phenyl]methyl]imidazo[4,5-d]pyridazin-7-amine] | 15.9 µM | 0.086 µM |  | 
9 | CCCCc1nc2c(N)nnc(CCC(C)C)c2n1Cc1ccc(CN)cc1 [Compound 133, 1-(4-(aminomethyl)benzyl)-2-butyl-7-isopentyl-1H-imidazo[4,5-d]pyridazin-4-amine] | > 19 µM | 0.146 µM |  | 
10 | CCCCOc1nnc(N)c2nc(CCCC)n(Cc3ccc(OC)cc3)c12 [Compound 8, 7-butoxy-2-butyl-1-(4-methoxybenzyl)-1H-imidazo[4,5-d]pyridazin-4-amine] | > 20 µM | 0.168 µM |  | 
11 | CCCCc1nc2c(N)nnc(/C=C/C(C)C)c2n1C[C@H]1CC[C@H](N)CC1 [Compound 139, 1-(((1R,4R)-4-aminocyclohexyl)methyl)-2-butyl-7-((E)-3-methylbut-1-en-1-yl)-1H-imidazo[4,5-d]pyridazin-4-amine] | > 20 µM | 0.37 µM |  | 
12 | CCCCc1nc2c(N)nnc(-c3ccn(C)c3)c2n1Cc1ccc(OC)cc1 [Compound 11, 2-butyl-1-(4-methoxybenzyl)-7-(1-methyl-1H-pyrrol-3-yl)-1H-imidazo[4,5d]pyridazin-4-amine] | > 20 µM | 0.192 µM |  | 
13 | CCCCc1nc2c(N)nnc(OC(C)C)c2n1CCCCCN [Compound 77, 1-(5-aminopentyl)-2-butyl-7-isopropoxy-1H-imidazo[4,5-d]pyridazin-4-amine] | > 20 µM | 0.39 µM |  | 
14 | CCCCc1nc2c(N)nnc(OC(C)C)c2n1Cc1ccc(CNS(C)(=O)=O)cc1 [Compound 115, N-(4-((4-amino-2-butyl-7-isopropoxy-1H-imidazo[4,5-d]pyridazin-1-yl)methyl)benzyl)methanesulfonamide] | > 16.5 µM | 0.107 µM |  | 

Further lines, results first:

Row | EC50 (human TLR8) | EC50 (human TLR7) | activation at 20 µM (human TLR8; 24 h, at 20000 nM) | activation at 20 µM (human TLR7) | Compound
15 | > 20 µM | 0.0514 µM |  |  | CCCCc1nc2c(N)nnc(CCC(C)C)c2n1C[C@H]1CC[C@H](CN)CC1 [Compound 138, 1-(((1R,4R)-4-(aminomethyl)cyclohexyl)methyl)-2-butyl-7-isopentyl-1H-imidazo[4,5-d]pyridazin-4-amine]
16 | > 20 µM | 0.326 µM |  |  | CCCCc1nc2c(N)nnc(OC(C)C)c2n1Cc1ccc(CNC(=O)CCOCCOC)cc1 [Compound 31, N-(4-((4-amino-2-butyl-7-isopropoxy-1H-imidazo[4,5-d]pyridazin-1-yl)methyl)benzyl)-3-(2-methoxyethoxy)propanamide]
17 | 4.07 µM | 6.14 µM |  |  | CCCCc1nc2c(N)nnc(N(C)Cc3ccc(CN)cc3)c2n1C [Compound 46, N7-(4-(aminomethyl)benzyl)-2-butyl-N7,1-dimethyl-1H-imidazo[4,5-d]pyridazine-4,7-diamine]
18 | > 20 µM |  |  | 13% | CCCCc1nc2c(N)nnc(-c3cnn(C)c3)c2n1Cc1ccc(OC)cc1 [Compound 97, 2-butyl-1-(4-methoxybenzyl)-7-(1-methyl-1H-pyrazol-4-yl)-1H-imidazo[4,5-d]pyridazin-4-amine]
19 | > 20 µM | 0.099 µM |  |  | CCCCc1nc2c(N)nnc(OC(C)C)c2n1Cc1ccc(CNC(=O)OCC)cc1 [Compound 111, ethyl (4-((4-amino-2-butyl-7-isopropoxy-1H-imidazo[4,5-d]pyridazin-1-yl)methyl)benzyl)carbamate]
20 | 0.223 µM | 0.421 µM |  |  | CCCCc1nc2c(N)nnc(N(C)Cc3ccc(CN(C)CCOC)cc3)c2n1C [Compound 47, 2-butyl-N7-(4-(((2-methoxyethyl)(methyl)amino)methyl)benzyl)-N7,1-dimethyl-1H-imidazo[4,5-d]pyridazine-4,7-diamine]
21 | > 20 µM | 0.71 µM |  |  | CCCCc1nc2c(N)nnc(/C=C/C(C)C)c2n1Cc1ccc(OC)cc1 [Compound 12, (E)-2-butyl-1-(4-methoxybenzyl)-7-(3-methylbut-1-en-1-yl)-1H-imidazo[4,5-d]pyridazin-4-amine]
